Data: patent US7507727B2, “Substituted quinobenzoxazine analogs and methods of using thereof” (Cylene Pharmaceuticals, Inc., priority 2003, dated 2009)

target: c-Myc template DNA (c-myc quadruplex); test: Quadruplex binding / stop assay (Taq polymerase arrest, capillary electrophoresis); conditions: read-out: S DATA; Table 1D, stop assay data

| IC50 | Compound |
| --- | --- |
| 0.74 µM | CN1CCC[C@@H]1CCNC(=O)c1cn2c3c(c(N4CCC(c5cnccn5)C4)c(F)cc3c1=O)Oc1cc3ccccc3cc1-2 (some centres unmarked) [compound 1741] |
| 1.75 µM | CN1CCCC1CCNC(=O)c1cn2c3c(c(NCCCNC(=O)OC(C)(C)C)c(F)cc3c1=O)Oc1cc3ccccc3cc1-2 (centres unmarked) [compound 1689] |
| > 15 µM | CN1CCCC1CCNC(=O)c1cn2c3c(c(NCCCN)c(F)cc3c1=O)Oc1cc(Cl)ccc1-2 (centres unmarked) [compound 1809] |
| > 15 µM | CC(C)C(CO)Nc1c(F)cc2c(=O)c(C(=O)NCCC3CCCN3C)cn3c2c1Oc1cc2ccccc2cc1-3 (centres unmarked) [compound 1747] |
| 1.75 µM | CN(C)CCCCNc1ccc2c(=O)c(C(=O)NCCC3CCCN3C)cn3c2c1Oc1cc2ccccc2cc1-3 (centres unmarked) [compound 1541] |
| 0.75 µM | CN1CCCC1CCNC(=O)c1cn2c3c(c(N4CCC(c5cccnc5)C4)c(F)cc3c1=O)Oc1cc3ccccc3cc1-2 (centres unmarked) [compound 1508] |
| > 15 µM | CCN(CC)CCCC(C)NC(=O)c1cn2c3c(c(N4CC5CCCNC5C4)c(F)cc3c1=O)Oc1ccccc1-2 (centres unmarked) [compound 1729] |
| > 15 µM | CC1(C)CC(NC(=O)c2cn3c4c(c(N5CCC(NC(=O)OC(C)(C)C)C5)c(F)cc4c2=O)Oc2ccccc2-3)CC(C)(C)N1 (centres unmarked) [compound 1591] |
| > 15 µM | CC(C)N1CCN(c2c(F)cc3c(=O)c(C(=O)NCCN4CCOCC4)cn4c3c2Oc2ccccc2-4)CC1 [compound 1562] |
| > 15 µM | O=C(NCCN1CCCC1)c1cn2c3c(c(NCCN4CCCC4)c(F)cc3c1=O)Oc1ccccc1-2 [compound 1597] |
| 3 µM | CCN(CC)CCCC(C)NC(=O)c1cn2c3c(c(N4CCC(c5cnccn5)C4)ccc3c1=O)Oc1ccccc1-2 (centres unmarked) [compound 1721] |
| > 15 µM | CC(CNC(=O)c1cn2c3c(c(N4CCC(N)C4)c(F)cc3c1=O)Oc1cc3ccccc3cc1-2)c1ccccc1 (centres unmarked) [compound 1695] |
| 8.2 µM | CC(C)N1CCN(c2c(F)cc3c(=O)c(C(=O)NCCN4CCCC4)cn4c3c2Oc2cccnc2-4)CC1 [compound 1801] |
| 0.75 µM | CC1CCN(CCCNc2c(F)cc3c(=O)c(C(=O)NCCC4CCCN4C)cn4c3c2Oc2cc3ccccc3cc2-4)CC1 (centres unmarked) [compound 1501] |
| > 15 µM | CN1CCCC1CCNC(=O)c1cn2c3c(c(SCCc4cnccn4)c(F)cc3c1=O)Oc1ccc(Cl)cc1-2 (centres unmarked) [compound 1787] |
| 1.75 µM | C[C@H](O)CNc1c(F)cc2c(=O)c(C(=O)NCCC3CCCN3C)cn3c2c1Oc1cc2ccccc2cc1-3 (some centres unmarked) [compound 1683] |
| 10 µM | CC(C)C(=O)N1CCN(c2c(F)cc3c(=O)c(C(=O)NCCN4CCCC4)cn4c3c2Oc2cc(Cl)ccc2-4)CC1 [compound 1823] |
| 6.3 µM | C[N+]1([O-])CCC[C@@H]1CCNC(=O)c1cn2c3c(c(N4CCC(c5cnccn5)C4)c(F)cc3c1=O)Oc1cc3ccccc3cc1-2 (some centres unmarked) [compound 1766] |

More lines, now with the values behind:

| Compound | IC50 |
| --- | --- |
| CN1CCC[C@H]1CCNC(=O)c1cn2c3c(c(N4CCC(c5cnccn5)C4)c(F)cc3c1=O)Oc1ccccc1-2 (some centres unmarked) [compound 1762] | 5.7 µM |
| CN1CCCC1CCNC(=O)c1cn2c3c(c(NCC4CCN(C(=O)OC(C)(C)C)C4)c(F)cc3c1=O)Oc1cc3ccccc3cc1-2 (centres unmarked) [compound 1506] | 0.75 µM |
| NC1CCN(c2c(F)cc3c(=O)c(C(=O)NCC(O)c4ccccc4)cn4c3c2Oc2cc3ccccc3cc2-4)C1 (centres unmarked) [compound 1703] | > 15 µM |
| O=C(NCCCN1CCOCC1)c1cn2c3c(c(NCCN4CCOCC4)ccc3c1=O)Oc1cc3ccccc3cc1-2 [compound 1548] | > 15 µM |
| CN1CCCC1CCNC(=O)c1cn2c3c(c(NCc4ccoc4)c(F)cc3c1=O)Oc1cc3ccccc3cc1-2 (centres unmarked) [compound 1752] | > 15 µM |
| O=C(NCCN1CCCC1)c1cn2c3c(c(N4CCN(Cc5ccoc5)CC4)c(F)cc3c1=O)Oc1cc(Cl)ccc1-2 [compound 1832] | 10 µM |
| CN1CCCC1CCNC(=O)c1cn2c3c(c(SCCc4ccccn4)c(F)cc3c1=O)Oc1cc3ccccc3cc1-2 (centres unmarked) [compound 1781] | 5.5 µM |
| CC(C)(C)OC(=O)NC1CCN(C(=O)c2cn3c4c(c(NCCN5CCCC5)c(F)cc4c2=O)Oc2ccccc2-3)C1 (centres unmarked) [compound 1595] | > 15 µM |
| O=C(NCCCN1CCOCC1)c1cn2c3c(c(NCCN4CCCC4)c(F)cc3c1=O)Oc1ccccc1-2 [compound 1592] | > 15 µM |
| CN1CCCC1CCNC(=O)c1cn2c3c(c(N4CCC(NC(=O)OC(C)(C)C)C4)ccc3c1=O)Oc1cc3ccccc3cc1-2 (centres unmarked) [compound 1535] | 0.75 µM |
| CN1CCCC1CCNC(=O)c1cn2c3c(c(NC[C@@H]4CCCO4)c(F)cc3c1=O)Oc1cc3ccccc3cc1-2 (some centres unmarked) [compound 1737] | 4 µM |
| O=C(NCCCN1CCOCC1)c1cn2c3c(c(NCCN4CCOCC4)c(F)cc3c1=O)Oc1ccccc1-2 [compound 1604] | > 15 µM |
| CCCCOCCCNc1c(F)cc2c(=O)c(C(=O)NCCC3CCCN3C)cn3c2c1Oc1cc2ccccc2cc1-3 (centres unmarked) [compound 1659] | 1.75 µM |
| COc1ccc(CCNc2c(F)cc3c(=O)c(C(=O)NCCN4CCCC4)cn4c3c2Oc2cc3ccccc3cc2-4)cc1OC [compound 1756] | 1.81 µM |
| CN1CCCC1CCNC(=O)c1cn2c3c(c(NCCCCCO)c(F)cc3c1=O)Oc1cc3ccccc3cc1-2 (centres unmarked) [compound 1658] | 1.75 µM |

same assay, conditions: read-out: Stop Data c-Myc μM; concentration at which 50% of the DNA was arrested (arrested:full-length 1:1)

| IC50 | Compound |
| --- | --- |
| 2.5 µM | CN1CCCC1CCNc1c(F)cc2c(=O)c(C(=O)NCCN3CCCC3)cn3c2c1Oc1cc2c(cc1-3)oc1ccccc12 (centres unmarked) [compound 87] |
| 1.75 µM | CN1CCN(CCCNC(=O)c2cn3c4c(c(N5CCC(NC(=O)OC(C)(C)C)C5)c(F)c(N)c4c2=O)Oc2cc4ccccc4cc2-3)CC1 (centres unmarked) [compound 231] |
| 1.75 µM | Nc1c(F)c(F)c2c3c1c(=O)c(C(=O)O)cn3-c1cc3ccccc3cc1O2 [compound 13] |
| 1.75 µM | CN1CCN(CCCNC(=O)c2cn3c4c(c(NCCN5CCOCC5)c(F)cc4c2=O)Oc2cc4c(cc2-3)oc2ccccc24)CC1 [compound 146] |
| 0.18 µM | CN(C)CCCCNCCC(=O)N[C@@H]1CCN(c2c(F)cc3c(=O)c(C(=O)NCCCN4CCN(C)CC4)cn4c3c2Oc2cc3c(cc2-4)oc2ccccc23)C1 [compound 588] |
| 1.75 µM | CN(C)c1c(F)cc2c(=O)c(C(=O)O)cn3c4cc5oc6cc(N)ccc6[nH]c5cc4oc1c23 [compound 10] |
| 0.75 µM | CN(C)CCCCNC(=O)c1cn2c3c(c(NCCCN4CCN(C)CC4)ccc3c1=O)Oc1cc3ccccc3cc1-2 [compound 456] |
| 0.62 µM | CN(C)CCCCNC(=O)c1cn2c3c(c(NCCN4CCCC4)c(F)cc3c1=O)Oc1c-2ccc2ccccc12 [compound 473] |

Further lines, the molecule ahead of its results:

| Compound | IC50 |
| --- | --- |
| COC(=O)C(CO)NC(=O)c1cn2c3cc4c(=O)c5ccccc5c(=O)c4cc3oc3c(NCCN4CCCC4)c(F)cc(c1=O)c32 (centres unmarked) [compound 345] | 0.9 µM |
| CN(C)CCCCNc1c(F)cc2c(=O)c(C(=O)N3CCC(N)C3)cn3c4cc5c(=O)c6ccccc6c(=O)c5cc4oc1c23 (centres unmarked) [compound 96] | 2.5 µM |
| CN1CCCC1CCNC(=O)c1cn2c3c(c(/N=C4\CCCCN4)c(F)cc3c1=O)Oc1cc3ccccc3cc1-2 (centres unmarked) [compound 253] | 1.75 µM |
| CN1CCN(c2c(F)cc3c(=O)c(C(=O)NCCC4CCCN4C)cn4c5cc6c(=O)c7ccccc7c(=O)c6cc5oc2c34)CC1 (centres unmarked) [compound 351] | 0.9 µM |
| CN(C)CCCCNc1c(F)cc2c(=O)c(C(=O)NCCCN3CCOCC3)cn3c2c1Oc1c-3ccc2ccccc12 [compound 400] | 0.75 µM |
| CN(C)CCCCNC(=O)c1cn2c3c(c(NCCN4CCCC4)c(F)cc3c1=O)Oc1cc3ccccc3cc1-2 [compound 317] | 1 µM |
| O=C(NCCCN1CCOCC1)c1cn2c3c(c(NCCN4CCCC4)c(F)cc3c1=O)Oc1cc3c(cc1-2)oc1ccccc13 [compound 160] | 1.75 µM |
| NC1CCN(C(=O)c2cn3c4cc5c(=O)c6ccccc6c(=O)c5cc4oc4c(N5CCC(N)C5)c(F)cc(c2=O)c43)C1 (centres unmarked) [compound 499] | 0.4 µM |
| O=C(NCCN1CCOCC1)c1cn2c3c(c(NCCN4CCCC4)c(F)cc3c1=O)Oc1cc3ccccc3cc1-2 [compound 70] | 2.5 µM |
| O=C(NCCCN1CCOCC1)c1cn2c3cc4c(cc3oc3c(NCCCN5CCOCC5)c(F)cc(c1=O)c32)c(=O)c1ccccc14 [compound 203] | 1.75 µM |
| CN1CCC(NC(=O)c2cn3c4c(c(N5CCC(N)C5)c(F)cc4c2=O)Oc2cc4ccccc4cc2-3)CC1 (centres unmarked) [compound 467] | 0.75 µM |
| CN1CCN(CCCNC(=O)c2cn3c4c(c(NCCN5CCCC5)c(F)cc4c2=O)Oc2c-3ccc3ccccc23)CC1 [compound 399] | 0.75 µM |
| CN(C)CCCNC(=O)c1cn2c3c(c(N4CCC(NC(=O)OC(C)(C)C)C4)c(F)cc3c1=O)Oc1cc3ccccc3cc1-2 (centres unmarked) [compound 242] | 1.75 µM |
| CC1CCCC(C)N1CCCNC(=O)c1cn2c3c(c(N4CCC(N)C4)c(F)cc3c1=O)Oc1cc3ccccc3cc1-2 (centres unmarked) [compound 465] | 0.75 µM |
| CN1CCCC1CCNC(=O)c1cn2c3c(c(N4CCC(N)CC4)c(F)cc3c1=O)Oc1cc3ccccc3cc1-2 (centres unmarked) [compound 281] | 1.75 µM |
| Cc1ncn(C(=O)c2cn3c4c(c(N5CCC(N)C5)c(F)cc4c2=O)Oc2cc4ccccc4cc2-3)c1CO (centres unmarked) [compound 199] | 1.75 µM |
| O=C(O)c1cn2c3c(c(NCC4CCCO4)c(F)cc3c1=O)Oc1cc3ccccc3cc1-2 (centres unmarked) [compound 1] | 4 µM |
| N=C(N)NCCCCNC(=O)c1cn2c3c(c(NCCCN4CCOCC4)c(F)cc3c1=O)Oc1cc3ccccc3cc1-2 [compound 330] | 1 µM |
| CN(C)CCCCNC(=O)c1cn2c3c(c(NCCCN4CCN(C)CC4)c(F)cc3c1=O)Oc1cc3ccccc3cc1-2 [compound 396] | 0.75 µM |
| CC1CCCC(C)N1CCCNC(=O)c1cn2c3c(c(N4CCC(N)C4)c(F)cc3c1=O)Oc1cc3ccccc3cc1-2 (centres unmarked) [compound 337] | 1 µM |
| COc1ccc(OC)c(CCNc2c(F)cc3c(=O)c(C(=O)NCCC4CCCN4C)cn4c3c2Oc2cc3ccccc3cc2-4)c1 (centres unmarked) [compound 291] | 1.75 µM |
| CN(C)CCN(Cc1ccccc1)C(=O)c1cn2c3c(c(N4CCC(N)C4)c(F)cc3c1=O)Oc1cc3ccccc3cc1-2 (centres unmarked) [compound 194] | 1.75 µM |
| CN1CCN(CCCNc2c(F)cc3c(=O)c(C(=O)NCCCN4CCOCC4)cn4c3c2Oc2cc3c(cc2-4)oc2ccccc23)CC1 [compound 149] | 1.75 µM |
| CN(C)CCCCNC(=O)c1cn2c3c(c(N4CCC(N)C4)c(F)c(N)c3c1=O)Oc1cc3ccccc3cc1-2 (centres unmarked) [compound 237] | 1.75 µM |
